# Experimental data: PubChem BioAssay AID1963979 (Molecular Pharmacology Branch, DTP, NCI, 2024)
# Test system: 361931-004-R-J1-PDC multicell spheroid viability
# Experiment: Anticancer human tumor 361931-004-R-J1-PDC patient-derived colon adenocarcinoma cell line growth inhibition [PI3K]
# Settings: for IC50: curve of first compound; for viability, T/C: stronger effect = lower value
# From the text: Combinatorial screen of targeted agents with the PI3K inhibitors inavolisib, alpelisib, duvelisib, and copanlisib in multi-cell type tumor spheroids
# A high-throughput screen of multi-cell type tumor spheroids was designed to identify active combinations of targeted small molecules and PI3K pathway inhibitors. Complex spheroids include a stromal component modeled by human endothelial cells (HUVEC) and fibroblasts modeled by human mesenchymal stem cells (MSCs). The concentration ranges selected for each drug and investigational agent were based upon clinically achievable concentrations if the clinical Cmax of the agent was known.
# Compounds. The drugs and investigational agents: inavolisib (NSC800729), alpelisib (NSC765974), duvelisib (NSC772469), copanlisib (NSC816437), ipatasertib (NSC767898), afuresertib (NSC778305), talazoparib (NSC767125), sapanisertib (NSC764658), selumetinib (NSC741078), tovorafenib (DAY101, NSC766906), vemurafenib (NSC761431), ravoxertinib (NSC781343), sotorasib (NSC818433), MRTX1133 (NSC 836407), abemaciclib (NSC 768073), palbociclib (NSC758247), venetoclax (NSC 766270), SY5609 (NSC837396), enzalutamide (NSC755605), and darolutamide (NSC825331), were obtained from the National Cancer Institute (NCI) Developmental Therapeutics Program Chemical Repository. The FDA-approved anticancer drug set is available from the NCI Developmental Therapeutics Program. […] The stock solutions were prepared in dimethyl sulfoxide (DMSO, Sigma-Aldrich, St. Louis, MO, cat. D2650) at 800-fold the tested concentration and stored at -70 degrees C prior to their use. All drugs and investigational agents were tested over a range starting from a high concentration at or near the clinical Cmax and decreasing in half-log increments. If the clinical Cmax for an agent had not been determined, the highest concentration tested was 10 microM.
# Cell Culture. All cells were maintained in an incubator at 37 degrees C and 5% CO2 with 95% humidity. The PDC lines were cultured according to standard operating procedures established by the NCI PDMR (https://pdmr.cancer.gov/sops/default.htm). All PDCs were thawed and cultured in Matrigel-coated flasks prepared with a working solution of 1X Ham's F-12 nutrient mix, without supplementation (Invitrogen, Waltham, MA, cat. 11765054), 100 U/mL penicillin-streptomycin (Invitrogen, cat. 15140122), and 2.5% Matrigel (Corning Inc., Corning, NY, cat. 354248) for the first three passages. The 354836-022-R-J1-PDC, 475296-252-R-J1-PDC, and 997726-040-R-J2-PDC lines were cultured in 6A media, which includes advanced DMEM/F-12 (Thermo Fisher Scientific, cat. 12634028), 10 mM HEPES (Thermo Fisher Scientific, cat. 15630080), 1X GlutaMAX supplement (Thermo Fisher Scientific, cat. 35050061), 0.1 mg/mL primocin (InvivoGen, San Diego, CA, cat. ant-pm-2), 10% defined fetal bovine serum, heat inactivated (HyClone Laboratories Inc., Logan, UT, cat. SH30070.03HI), 50% L-WRN conditioned media (ATCC, cat. CRL-3276), 1.25 mM N-Acetyl-L-cysteine (Sigma-Aldrich, cat. A9165), 10 mM nicotinamide (Sigma-Aldrich, cat. N0636), 1X B-27 supplement (Thermo Fisher Scientific, cat. 17504044), 1X N-2 supplement (Thermo Fisher Scientific, cat. 17502048), and 10 microM Y-27632 dihydrochloride (Tocris Bioscience, Bristol, United Kingdom, cat. 1254). The 624824-186-R-J2-PDC line was cultured in 6C/Colon 1B media, which includes all 6A media components plus 50 ng/mL human EGF recombinant protein (Thermo Fisher Scientific, cat. PHG0311). […]
# [1] = second compound 0.00316 µM, first compound 0.0316 µM
# [2] = second compound 0.00316 µM, first compound 0.1 µM
# [3] = second compound 0.01 µM, first compound 0.0316 µM
# [4] = second compound 0.01 µM, first compound 0.1 µM
# [5] = second compound 0.0316 µM, first compound 0.0316 µM
# [6] = second compound 0.0316 µM, first compound 0.1 µM
# [7] = second compound 0.1 µM, first compound 0.0316 µM
# [8] = second compound 0.1 µM, first compound 0.1 µM
# [9] = second compound 0.316 µM, first compound 0.0316 µM
# [10] = second compound 0.316 µM, first compound 0.1 µM
# [11] = second compound 1 µM, first compound 0.0316 µM
# [12] = second compound 1 µM, first compound 0.1 µM
# [13] = second compound 0.00316 µM, first compound 0.316 µM
# [14] = second compound 0.00316 µM, first compound 1 µM
# [15] = second compound 0.00316 µM, first compound 3.16 µM
# [16] = second compound 0.00316 µM, first compound 10 µM
# [17] = second compound 0.01 µM, first compound 0.316 µM
# [18] = second compound 0.01 µM, first compound 1 µM
# [19] = second compound 0.01 µM, first compound 3.16 µM
# [20] = second compound 0.01 µM, first compound 10 µM
# [21] = second compound 0.0316 µM, first compound 0.316 µM
# [22] = second compound 0.0316 µM, first compound 1 µM
# [23] = second compound 0.0316 µM, first compound 3.16 µM
# [24] = second compound 0.0316 µM, first compound 10 µM
# [25] = second compound 0.1 µM, first compound 0.316 µM
# [26] = second compound 0.1 µM, first compound 1 µM
# [27] = second compound 0.1 µM, first compound 3.16 µM
# [28] = second compound 0.1 µM, first compound 10 µM
# [29] = second compound 0.316 µM, first compound 0.316 µM
# [30] = second compound 0.316 µM, first compound 1 µM
# [31] = second compound 0.316 µM, first compound 3.16 µM
# [32] = second compound 0.316 µM, first compound 10 µM
# [33] = second compound 1 µM, first compound 0.316 µM
# [34] = second compound 1 µM, first compound 1 µM
# [35] = second compound 1 µM, first compound 3.16 µM
# [36] = second compound 1 µM, first compound 10 µM
# 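Also: spheroids exposed to agents for seven days before readout.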
compound,measurement,setting,value
CC(C)n1nc(-c2ccc3oc(N)nc3c2)c2c(N)ncnc21 + CC(Nc1ccc2c(c1)OCCn1cc(N3C(=O)OCC3C(F)F)nc1-2)C(N)=O,IC50,second compound 0.00316 µM,> 0.1 µM
same,IC50,second compound 0.01 µM,> 0.1 µM
same,IC50,second compound 0.0316 µM,> 0.1 µM
same,IC50,second compound 0.1 µM,0.0958 µM
same,IC50,second compound 0.316 µM,> 0.1 µM
same,IC50,second compound 1 µM,0.0544 µM
same,"viability, T/C","second compound 0.00316 µM, first compound 0.000316 µM",102%
same,"viability, T/C","second compound 0.00316 µM, first compound 0.001 µM",106%
same,"viability, T/C","second compound 0.00316 µM, first compound 0.00316 µM",98.2%
same,"viability, T/C","second compound 0.00316 µM, first compound 0.01 µM",95.6%
same,"viability, T/C",[1],101%
same,"viability, T/C",[2],59.9%
same,"viability, T/C","second compound 0.01 µM, first compound 0.000316 µM",109%
same,"viability, T/C","second compound 0.01 µM, first compound 0.001 µM",104%
same,"viability, T/C","second compound 0.01 µM, first compound 0.00316 µM",97.5%
same,"viability, T/C","second compound 0.01 µM, first compound 0.01 µM",91.6%
same,"viability, T/C",[3],95.8%
same,"viability, T/C",[4],57.3%
same,"viability, T/C","second compound 0.0316 µM, first compound 0.000316 µM",102%
same,"viability, T/C","second compound 0.0316 µM, first compound 0.001 µM",98.7%
same,"viability, T/C","second compound 0.0316 µM, first compound 0.00316 µM",91.9%
same,"viability, T/C","second compound 0.0316 µM, first compound 0.01 µM",91.2%
same,"viability, T/C",[5],94.1%
same,"viability, T/C",[6],50.2%
same,"viability, T/C","second compound 0.1 µM, first compound 0.000316 µM",102%
same,"viability, T/C","second compound 0.1 µM, first compound 0.001 µM",116%
same,"viability, T/C","second compound 0.1 µM, first compound 0.00316 µM",100%
same,"viability, T/C","second compound 0.1 µM, first compound 0.01 µM",91.2%
same,"viability, T/C",[7],87.2%
same,"viability, T/C",[8],47.6%
same,"viability, T/C","second compound 0.316 µM, first compound 0.000316 µM",84.9%
same,"viability, T/C","second compound 0.316 µM, first compound 0.001 µM",96.3%
same,"viability, T/C","second compound 0.316 µM, first compound 0.00316 µM",106%
same,"viability, T/C","second compound 0.316 µM, first compound 0.01 µM",81.7%
same,"viability, T/C",[9],75.6%
same,"viability, T/C",[10],51.9%
same,"viability, T/C","second compound 1 µM, first compound 0.000316 µM",89%
same,"viability, T/C","second compound 1 µM, first compound 0.001 µM",80.6%
same,"viability, T/C","second compound 1 µM, first compound 0.00316 µM",82.4%
same,"viability, T/C","second compound 1 µM, first compound 0.01 µM",68.8%
same,"viability, T/C",[11],69.9%
same,"viability, T/C",[12],32.6%
CC1(C)CCC(CN2CCN(c3ccc(C(=O)NS(=O)(=O)c4ccc(NCC5CCOCC5)c([N+](=O)[O-])c4)c(Oc4cnc5[nH]ccc5c4)c3)CC2)=C(c2ccc(Cl)cc2)C1 + CC(Nc1ccc2c(c1)OCCn1cc(N3C(=O)OCC3C(F)F)nc1-2)C(N)=O,IC50,second compound 0.00316 µM,4.2 µM
same,IC50,second compound 0.01 µM,4.29 µM
same,IC50,second compound 0.0316 µM,4.05 µM
same,IC50,second compound 0.1 µM,3.93 µM
same,IC50,second compound 0.316 µM,3.36 µM
same,IC50,second compound 1 µM,3.32 µM
same,"viability, T/C",[1],104%
same,"viability, T/C",[2],98.4%
same,"viability, T/C",[13],112%
same,"viability, T/C",[14],101%
same,"viability, T/C",[15],65.6%
same,"viability, T/C",[16],2.39%
same,"viability, T/C",[3],93.3%
same,"viability, T/C",[4],99.7%
same,"viability, T/C",[17],91.5%
same,"viability, T/C",[18],103%
same,"viability, T/C",[19],67%
same,"viability, T/C",[20],2.81%
same,"viability, T/C",[5],99.1%
same,"viability, T/C",[6],109%
same,"viability, T/C",[21],92.1%
same,"viability, T/C",[22],101%
same,"viability, T/C",[23],63%
same,"viability, T/C",[24],2.11%
same,"viability, T/C",[7],99%
same,"viability, T/C",[8],99.8%
same,"viability, T/C",[25],95.9%
same,"viability, T/C",[26],85.3%
same,"viability, T/C",[27],61.9%
same,"viability, T/C",[28],1.48%
same,"viability, T/C",[9],86.7%
same,"viability, T/C",[10],84.7%
same,"viability, T/C",[29],87.8%
same,"viability, T/C",[30],84.3%
same,"viability, T/C",[31],52.7%
same,"viability, T/C",[32],1.87%
same,"viability, T/C",[11],78%
same,"viability, T/C",[12],80.7%
same,"viability, T/C",[33],75.8%
same,"viability, T/C",[34],71.2%
same,"viability, T/C",[35],52.4%
same,"viability, T/C",[36],1.28%
C[C@@H](NC(=O)c1ncnc(N)c1Cl)c1ncc(C(=O)Nc2cc(C(F)(F)F)c(Cl)cn2)s1 + CC(Nc1ccc2c(c1)OCCn1cc(N3C(=O)OCC3C(F)F)nc1-2)C(N)=O,IC50,second compound 0.00316 µM,> 10 µM
same,IC50,second compound 0.01 µM,> 10 µM
same,IC50,second compound 0.0316 µM,> 10 µM
same,IC50,second compound 0.1 µM,> 10 µM
same,IC50,second compound 0.316 µM,> 10 µM
same,IC50,second compound 1 µM,5.85 µM
same,"viability, T/C",[1],110%
same,"viability, T/C",[2],102%
same,"viability, T/C",[13],105%
same,"viability, T/C",[14],91.2%
same,"viability, T/C",[15],96.8%
same,"viability, T/C",[16],84.6%
same,"viability, T/C",[3],110%
same,"viability, T/C",[4],109%
same,"viability, T/C",[17],98%
same,"viability, T/C",[18],89.6%
same,"viability, T/C",[19],95%
same,"viability, T/C",[20],75.4%
same,"viability, T/C",[5],101%
same,"viability, T/C",[6],105%
same,"viability, T/C",[21],92.2%
same,"viability, T/C",[22],99%
same,"viability, T/C",[23],82.4%
same,"viability, T/C",[24],73.1%
same,"viability, T/C",[7],97.6%
same,"viability, T/C",[8],97.1%
same,"viability, T/C",[25],92.1%
same,"viability, T/C",[26],88.7%
same,"viability, T/C",[27],89.1%
same,"viability, T/C",[28],59.9%
same,"viability, T/C",[9],97.9%
same,"viability, T/C",[10],86.8%
same,"viability, T/C",[29],75.9%
same,"viability, T/C",[30],78.2%
same,"viability, T/C",[31],70.5%
same,"viability, T/C",[32],47.2%
same,"viability, T/C",[11],77.9%
same,"viability, T/C",[12],80.2%
same,"viability, T/C",[33],73.5%
same,"viability, T/C",[34],66%
same,"viability, T/C",[35],61.4%
same,"viability, T/C",[36],41.5%
